Calls of active or inactive are those of the source. The calls are words filed in the database; no cut-off is given here.
Assays:
PC-3 = assay: Antiproliferative activity against human PC3 cells after 72 hrs by MTT assay; assay type: functional, cell-based; details: PC-3, 72 h
[1] = biological target: T1, RAC-alpha serine/threonine-protein kinase (Homo sapiens, UniProt P31749); assay: Inhibition of AKT1 (unknown origin) at 1 uM using biotin-labelled STK as substrate measured after 45 mins by HTRF method relative to control
T1 sequence (P31749 whole entry): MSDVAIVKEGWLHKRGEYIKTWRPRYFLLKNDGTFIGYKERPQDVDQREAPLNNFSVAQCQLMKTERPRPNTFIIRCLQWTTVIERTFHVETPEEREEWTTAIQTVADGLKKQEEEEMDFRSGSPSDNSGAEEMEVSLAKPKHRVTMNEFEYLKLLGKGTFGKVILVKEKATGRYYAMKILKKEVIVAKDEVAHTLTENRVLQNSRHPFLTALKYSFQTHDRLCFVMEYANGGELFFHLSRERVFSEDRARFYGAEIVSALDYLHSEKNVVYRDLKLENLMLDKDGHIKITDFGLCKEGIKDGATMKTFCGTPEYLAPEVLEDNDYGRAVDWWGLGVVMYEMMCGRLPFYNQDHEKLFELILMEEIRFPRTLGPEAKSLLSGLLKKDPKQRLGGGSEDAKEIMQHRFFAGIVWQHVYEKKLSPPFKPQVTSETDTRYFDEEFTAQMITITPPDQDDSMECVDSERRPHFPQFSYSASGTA

in vitro [2] = assay: in vitro; design: dose or concentration left out as unconfirmed; details: human, liver microsomes
Description: Stability in human liver microsomes assessed as parent compound remaining at 10 mM preincubated for 10 mins followed by NADPH addition and measured after 60 mins by LC-MS analysis

in vitro [3] = assay: in vitro; design: dose or concentration left out as unconfirmed; details: human, liver microsomes; remark: listed apart in the source
Description: Intrinsic clearance in human liver microsomes at 10 mM preincubated for 10 mins followed by NADPH addition and measured after 5 to 60 mins by LC-MS analysis

in vitro [4] = assay: in vitro; design: dose or concentration left out as unconfirmed; details: human, liver microsomes; remark: listed apart in the source
Description: Half life in human liver microsomes at 10 mM preincubated for 10 mins followed by NADPH addition by LC-MS analysis

[5] = biological target: T1, RAC-alpha serine/threonine-protein kinase; assay: Inhibition of AKT1 (unknown origin) at 0.1 uM using biotin-labelled STK as substrate measured after 45 mins by HTRF method relative to control
[6] = biological target: T1, RAC-alpha serine/threonine-protein kinase; assay: Inhibition of AKT1 (unknown origin) using biotin-labelled STK as substrate measured after 45 mins by HTRF method
[7] = biological target: T1, RAC-alpha serine/threonine-protein kinase; assay: Inhibition of AKT in human PC3 cells assessed as reduction in GSK3beta phosphorylation at 1 to 10 uM after 4 hrs by Western blot analysis; assay type: cell-based
[8] = biological target: T1, RAC-alpha serine/threonine-protein kinase; assay: Inhibition of AKT1 (unknown origin) at 50 nM using biotin-labelled STK as substrate measured after 45 mins by HTRF method relative to control

Structure (SMILES) | IC50 (PC-3) [µM] | inhibition [1] [%] | inhibition [5] [%] | also measured
O=C(N1CCN(c2ncnc3ccccc23)CC1)C1(c2ccc(F)cc2)CCNCC1 | 13.7 | 23 |  | 
C[C@]12CC[C@H]3[C@@H](CCC4=CC(=O)CC[C@@]43C)[C@@H]1CC[C@@H]2O [TESTOSTERONE] |  |  |  | remaining at 1 h (in vitro [2]): 8.1%; CLint scaled (in vitro [3]): 74 mL/min/kg; microsomal CLint (in vitro [3]): 82.2 µL/min/mg; half-life (in vitro [4]): 16.9 min
O=C(N1CCN(c2ncnc3[nH]nc(Cl)c23)CC1)C1(c2ccc(Cl)cc2)CCNCC1 | 19.4 | 91.9 | 83.4 | IC50 [6]: 0.0666 µM
O=C(N1CCN(c2ncnc3ccccc23)CC1)C1(c2ccc(Br)cc2)CCNCC1 | 22.8 | 6.1 |  | 
O=C(N1CCN(c2ncnc3ccccc23)CC1)C1(c2ccc(Cl)c(Cl)c2)CCNCC1 | 14 | 21.9 |  | 
O=C(N1CCN(c2ncnc3[nH]cnc23)CC1)C1(c2ccc(Br)cc2)CCNCC1 | > 40 | 68 |  | 
O=C(N1CCN(c2ncnc3[nH]nc(Br)c23)CC1)C1(c2ccc(Cl)c(Cl)c2)CCNCC1 | 10.3 | 93.8 | 90.9 | IC50 [6]: 0.0305 µM
CCn1c(-c2nonc2N)nc2c(C#CC(C)(C)O)ncc(OC[C@H]3CCCNC3)c21 [GSK-690693] | 14.1 | 99.5 | 98.5 | inhibition [7]: Active
O=C(O)Cc1ccccc1Nc1c(Cl)cccc1Cl [DICLOFENAC] |  |  |  | CLint scaled (in vitro [3]): 123 mL/min/kg; microsomal CLint (in vitro [3]): 136 µL/min/mg; half-life (in vitro [4]): 10.2 min
O=C(N1CCN(c2ncnc3[nH]ncc23)CC1)C1(c2ccc(F)cc2)CCNCC1 | > 40 | 7.4 |  | 
O=C(N1CCN(c2ncnc3[nH]nc(Br)c23)CC1)C1(c2ccc(Br)cc2)CCNCC1 | 15 | 96.5 | 90.6 | IC50 [6]: 0.0519 µM
O=C(N1CCN(c2ncnc3[nH]nc(Br)c23)CC1)C1(c2ccc(F)cc2)CCNCC1 | 36.6 | 93.2 | 53.3 | 
O=C(N1CCN(c2ncnc3[nH]nc(Br)c23)CC1)C1(c2ccc(Cl)cc2)CCNCC1 | 9.8 | 96.7 | 86.7 | IC50 [6]: 0.0269 µM
O=C(Cc1ccc(Cl)cc1)N1CCN(c2ncnc3[nH]cc(Br)c23)CC1 | 21.1 |  |  | inhibition [8]: 69.7%
O=C(N1CCN(c2ncnc3[nH]nc(Cl)c23)CC1)C1(c2ccc(Br)cc2)CCNCC1 | 32.4 | 95.4 | 84.5 | IC50 [6]: 0.0329 µM
O=C(N1CCN(c2ncnc3[nH]nc(Cl)c23)CC1)C1(c2ccc(F)cc2)CCNCC1 | 37.4 | 86.7 | 60.9 | 
O=C(N1CCN(c2ncnc3[nH]ncc23)CC1)C1(c2ccc(Cl)cc2)CCNCC1 | > 40 | 38.7 |  | 
O=C(N1CCN(c2ncnc3ccccc23)CC1)C1(c2ccc(Cl)cc2)CCNCC1 | > 40 | 34.2 |  | 
O=C(N1CCN(c2ncnc3[nH]ncc23)CC1)C1(c2ccc(Br)cc2)CCNCC1 | > 40 | 11.6 |  | 
O=C(N1CCN(c2ncnc3[nH]cnc23)CC1)C1(c2ccc(Cl)cc2)CCNCC1 | > 40 | 45.6 |  | 
O=C(Cc1ccc(Cl)c(Cl)c1)N1CCN(c2ncnc3[nH]cc(Br)c23)CC1 | 31.5 |  |  | inhibition [8]: 65.5%
O=C(N1CCN(c2ncnc3[nH]ncc23)CC1)C1(c2ccc(Cl)c(Cl)c2)CCNCC1 | > 40 | 52.1 |  | 
O=C(N1CCN(c2ncnc3[nH]cnc23)CC1)C1(c2ccc(Cl)c(Cl)c2)CCNCC1 | 33.9 | 51.4 |  | 
O=C(N1CCN(c2ncnc3[nH]cnc23)CC1)C1(c2ccc(F)cc2)CCNCC1 | > 40 | 94.2 |  | 

— ChEMBL document CHEMBL4257535, “Design, synthesis and biological evaluation of AKT inhibitors bearing a piperidin-4-yl appendant” (Medchemcomm, 2018)
